Measurements: patent US20110002993A1, “FILM COATED TABLETS CONTAINING DROSPIRENONE AS ACTIVE AGENT AND A METHOD FOR THE PREPARATION THEREOF” (RICHTER GEDEON NYRT., priority 2007, published 2011)

Test: solubility of drospirenone in water
Format: physicochemical
Source text: For dissolution of such a large amount of active agent a large amount of pharmaceutically and environmentally acceptable solvent is needed. […] In the preparation process according to the invention the solvent is ethanol. Ethanol is the most advantageous solvent from the environmental and safety point of views.

solubility in water: substantially insoluble in water
SMILES: C[C@]12CCC(=O)C=C1[C@@H]1C[C@@H]1[C@H]1[C@@H]3[C@@H]4C[C@@H]4[C@@]4(CCC(=O)O4)[C@@]3(C)CC[C@@H]12 [drospirenone, 6β,7β;15β,16β-dimethylene-3-oxo-17α-pregn-4-en-21,17-carbolactone]
